Earlier results in patent publication US6818658B2, “Acylated piperidine derivatives as melanocortin-4 receptor agonists” (Merck & Co., Inc., priority 2001, dated 2004).

Legend:
[1] = patients
[2] = injected intramuscularly or subcutaneously, males with psychogenic erectile dysfunction

Compound | duration of effect [1] [h] | onset of action ([1]; for sildenafil after an oral dose) [min] | response rate [2] [%]
Cc1ccc(N(CC2=NCCN2)c2cccc(O)c2)cc1 [phentolamine] | 2 | 5 to 30 | –
Ac-Nle-c[Asp-His-DPhe-Arg-Trp-Lys]-NH2 [MT-II] | – | – | 75
